One series is described as follows: in vivo. As to conditions: rat, oral, rats 5 week age, observed for 3 days.
In series [1] the test system is hepatic disorder induced by carbon tetrachloride. The series can be described thus: Effect on hepatic disorder induced by carbon tetrachloride in rats (Example 5; serum GOT, GPT, bilirubin). It counts as in vivo, SLC-Wistar male rats. As to conditions: CCl4 0.5 ml/kg i.p., blood 24 hours after CCl4; for Bilirubin in serum: normal 0.12 ± 0.02, no combination compound 0.26 ± 0.02; for GPT in serum: normal 32 ± 3, no combination compound 10606 ± 1952; for GOT in serum: normal 73 ± 5, no combination compound 18228 ± 2032. The protocol:
Five rats were used in each test group. The sample compound (i.e., the compound prepared in Example 1) was suspended at a concentration of 40 mg/ml in a 0.1% aqueous solution of Tween-80. Alpha-tocopherol was dissolved at a concentration of 40 mg/ml in an olive oil. This solution was administered orally at a dose of 200 mg/kg each for 2 days. Glutathione was dissolved at a concentration of 100 mg/ml in a 0.1% aqueous solution of Tween-80. This solution was orally administered at a dose of 500 mg/kg for 2 days. Carbon tetrachloride was intraperitoneally administered as a 10% olive oil solution at a dose of 5 ml/kg (0.5 ml/kg in terms of CCl4) one hour after the final administration of the sample compound. Blood samples were collected from the carotid artery under pentobarbital anesthesia, 24 hours after the administration of carbon tetrachloride. […] The determination of GOT and GPT in serum was carried out according to a UV method and the determination of bilirubin was carried out according to a diazo method.

The test system of series [2] is liver disorder induced by D-galactosamine. The series can be described thus: Effect on liver disorder induced by D-galactosamine in rats (serum GOT, GPT, bilirubin). In kind it is in vivo, Wistar-Imamichi male rats. To be noted: D-galactosamine 400 mg/kg i.p., 200 mg/kg orally for 2 days, blood 24 hours after D-galactosamine; for Bilirubin in serum: normal 0.12 ± 0.02, no combination compound 0.43 ± 0.06; for GPT in serum: normal 15 ± 1, no combination compound 2195 ± 460; for GOT in serum: normal 97 ± 3, no combination compound 6170 ± 1507. The protocol:
Effect of 3,5-diethoxycarbonyl-4-[2'-(5',6'-dihydro-p-dioxinyl)]-2,6-dimethyl-1,4-dihydropyridine (compound of Example 1) on liver disorder induced by D-galactosamine.
The effect of the sample compound to be tested on hepatic disorder was evaluated by determining the levels of GOT, GPT and bilirubin, which are known as an indicator of hepatic disorder, in serum, after administering D-galactosamine hydrochloride and the sample compound to Wistar-Imamichi male rats (8 week age and body weight of 260 to 280 g) as follows.
Five rats were used in each test group. The sample compound (i.e., the compound prepared in Example 1) was suspended at a concentration of 40 mg/ml in a 0.1% aqueous solution of Tween-80 (Trademark of surfactant available from Atlas Chemical Corp.). Alpha-tocopherol was dissolved at a concentration of 40 mg/ml in olive oil. This solution was administered orally at a dose of 200 mg/kg each for 2 days (25 and 1 hours before the administration of D-galactosamine). D-galactosamine was dissolved at a concentration of 100 mg/ml in a Physiological saline and this solution was administered intraperitoneally at a single dose of 400 mg/kg one hour after the final administration of the sample compound.
Blood samples were collected from the carotid artery under pentobarbital anesthesia, 24 hours after the administration of D-galactosamine. The rats were fasted for 18 to 20 hours before collecting of blood sample.
(§1) The determination of GOT and GPT in serum was carried out according to a UV method and the determination of bilirubin was carried out according to a diazo method.

The test system of series [3] is hepatic disorder induced by carbon tetrachloride. The series can be described thus: Effect on hepatic disorder induced by carbon tetrachloride in rats (Examples 6 and 7; serum GOT, GPT, bilirubin). It counts as in vivo, SLC-Wistar male rats. To be noted: CCl4 0.5 ml/kg i.p., 200 mg/kg orally for 2 days, blood 24 hours after CCl4; for Bilirubin in serum: normal 0.10 ± 0.00, no combination compound 0.24 ± 0.02; for GPT in serum: normal 46 ± 6, no combination compound 10266 ± 818; for GOT in serum: normal 97 ± 10, no combination compound 16650 ± 1636. The protocol:
The effects of the sample compounds on hepatic disorders were evaluated by determining the levels of GOT, GPT, and bilirubin […] in serum, after administering carbon tetrachloride and the sample compound to SLC-Wistar male rats (10 week age and body weight of 240 to 270 g) as follows.
Five rats were used in each test group. The sample compounds (i.e., the compounds prepared in Examples 2 and 3) were suspended at a concentration of 40 mg/ml in a 0.1% aqueous solution of Tween-80. Alpha-tocopherol was dissolved at a concentration of 40 mg/ml in olive oil. This solution was administered orally at a dose of 200 mg/kg each for 2 days. Glutathione was dissolved at a concentration of 100 mg/ml in a 0.1% aqueous solution of Tween-80. This solution was orally administered at a dose of 500 mg/kg for 2 days. Carbon tetrachloride was intraperitoneally administered as a 10% olive oil solution at a dose of 5 ml/kg (0.5 ml/kg in terms of CCl4) one hour after the final administration of each sample compound.
Blood sampels were collected from the carotid artery under pentobarbital anesthesia, 24 hours after the administration of carbon tetrachloride. The rats were fasted for 18 to 20 hours before collecting of a blood sample.
as §1

The mark [4] stands for this setting: glutathione 500 mg/kg orally for 2 days.

The structures appear in SMILES notation. A value given as a limit tells only on which side of the number the result lay.

Broadly, the LD50 is the dose expected to kill half of the subjects tested. High values mean lower toxicity, low ones greater toxicity.

In the series “in vivo”, `CCOC(=O)C1=C(C)NC(C)=C(C(=O)OCC)C1C1=COCCO1` [Example 1, 3,5-diethoxycarbonyl-4-[2'-(5',6'-dihydro-p-dioxinyl)]-2,6-dimethyl-1,4-dihydropyridine] came in with an LD50 at 72 h of roughly 2000 mg/kg. Also, in series [1] (200 mg/kg orally for 2 days), the Bilirubin in serum is 0.14 ± 0.02 mg/dL, the GPT in serum stood at 1396 ± 290 KU and the GOT in serum was 1800 ± 321 KU. Besides, in series [2], the Bilirubin in serum turned out to be 0.30 ± 0.06 mg/dL, the GPT in serum turned out to be 862 ± 373 KU and the GOT in serum amounted to 2194 ± 777 KU.
In the series “in vivo”, `CCCOC(=O)C1=C(C)NC(C)=C(C(=O)OCCC)C1C1=COCCO1` [Example 2, 3,5-di-n-propyloxycarbonyl-4-[2'-(5',6'-dihydro-p-dioxynyl)]-2,6-dimethyl-1,4-dihydropyridine] displayed an LD50 at 72 h of no less than 2000 mg/kg. In series [3], the Bilirubin in serum worked out at 0.13 ± 0.03 mg/dL, the GPT in serum came out at 1443 ± 228 KU and the GOT in serum turned out to be 2456 ± 734 KU.
`COC(=O)C1=C(C)NC(C)=C(C(=O)OC)C1C1=COCCO1` [Example 3, 3,5-dimethoxycarbonyl-4-2'-(5',6'-dihydro-p-dioxinyl)-2,6-dimethyl-1,4-dihydropyridine]: in series [3], the Bilirubin in serum amounted to 0.14 ± 0.02 mg/dL, the GPT in serum stood at 680 ± 107 KU and the GOT in serum came to 901 ± 127 KU.
On to `Cc1c(C)c2c(c(C)c1O)CCC(C)(CCCC(C)CCCC(C)CCCC(C)C)O2` (stereo not drawn) [alpha-tocopherol, reference compound], for which the Bilirubin in serum came out at 0.26 ± 0.04 mg/dL in series [3], 0.18 ± 0.02 mg/dL in series [1] (200 mg/kg orally for 2 days) and 0.26 ± 0.02 mg/dL in series [2]. In addition, the GPT in serum amounted to 9106 ± 591 KU in series [3], 5764 ± 1564 KU in series [1] (200 mg/kg orally for 2 days) and 1043 ± 189 KU in series [2]. The GOT in serum in series [3] was 14558 ± 1049 KU; in series [1] (200 mg/kg orally for 2 days), 5662 ± 793 KU; in series [2], 3065 ± 440 KU.
With `N[C@@H](CCC(=O)N[C@@H](CS)C(=O)NCC(=O)O)C(=O)O` [glutathione], in series [1] (setting [4]), the Bilirubin in serum was found to be 0.22 ± 0.02 mg/dL, the GPT in serum was found to be 7722 ± 1170 KU and the GOT in serum is 11272 ± 1904 KU.
